Results: PMC10539361, “Allosteric modulation of the fish taste receptor type 1 (T1R) family by the extracellular chloride ion” (Scientific Reports, 2023)

Molecular target: T1, mfT1R2a/mfT1R3 (Oryzias latipes, UniProt Q2MHK2+Q2MHK5)
T1 sequence (Q2MHK5 20-819): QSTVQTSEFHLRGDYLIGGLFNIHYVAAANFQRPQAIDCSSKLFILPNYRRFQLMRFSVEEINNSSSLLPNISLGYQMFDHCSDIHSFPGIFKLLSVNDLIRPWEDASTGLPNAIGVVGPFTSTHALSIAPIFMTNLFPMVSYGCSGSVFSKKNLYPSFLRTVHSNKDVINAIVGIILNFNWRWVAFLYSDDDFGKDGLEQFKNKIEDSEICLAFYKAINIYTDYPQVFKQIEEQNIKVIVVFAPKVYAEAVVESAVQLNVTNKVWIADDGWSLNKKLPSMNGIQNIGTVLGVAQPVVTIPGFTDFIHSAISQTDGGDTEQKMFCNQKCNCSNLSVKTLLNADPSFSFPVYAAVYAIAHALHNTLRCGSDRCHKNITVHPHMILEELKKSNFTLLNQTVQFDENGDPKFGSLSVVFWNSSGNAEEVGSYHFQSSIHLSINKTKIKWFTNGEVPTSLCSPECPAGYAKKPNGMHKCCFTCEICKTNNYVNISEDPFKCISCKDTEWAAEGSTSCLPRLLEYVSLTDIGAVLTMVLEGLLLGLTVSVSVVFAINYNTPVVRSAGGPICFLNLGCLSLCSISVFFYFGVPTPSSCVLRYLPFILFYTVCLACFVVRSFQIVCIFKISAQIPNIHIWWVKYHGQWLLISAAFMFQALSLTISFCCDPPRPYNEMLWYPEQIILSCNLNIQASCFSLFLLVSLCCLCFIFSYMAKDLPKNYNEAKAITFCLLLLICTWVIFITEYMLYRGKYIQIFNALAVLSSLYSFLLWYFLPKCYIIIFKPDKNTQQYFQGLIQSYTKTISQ
T1 sequence (Q2MHK2 20-853): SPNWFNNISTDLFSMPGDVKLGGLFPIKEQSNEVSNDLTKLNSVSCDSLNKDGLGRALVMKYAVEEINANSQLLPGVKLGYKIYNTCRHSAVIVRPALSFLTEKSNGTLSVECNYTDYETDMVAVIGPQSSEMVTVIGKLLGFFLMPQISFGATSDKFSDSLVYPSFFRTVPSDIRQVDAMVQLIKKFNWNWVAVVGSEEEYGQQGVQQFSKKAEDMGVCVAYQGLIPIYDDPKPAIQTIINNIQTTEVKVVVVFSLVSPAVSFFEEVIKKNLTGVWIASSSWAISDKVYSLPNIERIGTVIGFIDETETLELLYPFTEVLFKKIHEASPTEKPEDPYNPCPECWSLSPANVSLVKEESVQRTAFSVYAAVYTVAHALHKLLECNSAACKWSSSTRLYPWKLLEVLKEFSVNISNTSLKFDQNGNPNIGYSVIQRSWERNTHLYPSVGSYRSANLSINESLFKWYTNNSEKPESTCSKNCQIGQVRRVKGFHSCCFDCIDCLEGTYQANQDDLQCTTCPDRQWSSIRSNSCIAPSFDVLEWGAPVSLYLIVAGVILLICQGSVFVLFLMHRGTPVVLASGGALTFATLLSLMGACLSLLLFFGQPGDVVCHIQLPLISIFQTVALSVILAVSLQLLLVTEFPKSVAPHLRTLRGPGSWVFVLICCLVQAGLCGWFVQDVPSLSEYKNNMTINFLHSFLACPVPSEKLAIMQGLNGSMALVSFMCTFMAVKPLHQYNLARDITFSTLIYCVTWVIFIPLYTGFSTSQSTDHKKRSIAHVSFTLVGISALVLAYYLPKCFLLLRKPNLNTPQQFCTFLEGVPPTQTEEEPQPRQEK
Assay: Ca2+ mobilization dose-response assay, stable cells expressing mfT1R2a/mfT1R3 with G16gust44
Description: The buffers with lower Cl^− were prepared by progressively replacing NaCl, KCl, CaCl2 and MgCl2 in the buffer with gluconate equivalents[20]. The pH was adjusted to 7.4 with NaOH. Ligands were diluted with the assay buffers at the desired concentrations.
Measurements of the responses of the cells by cell-based assay based on the intracellular Ca^2+ mobilization were carried out as described previously with some modifications[20],[34],[46],[47]. […] The cells were seeded in 96-well plates (clear-bottomed CellBIND surface plate, Corning, Glendale, AZ, USA) coated with ε-poly-L-lysine (Cosmo Bio, Tokyo, Japan) at approximately 70,000 cells per well. After 20 h, the medium was removed and replaced with high Cl^− buffer. After 3 h 30 min incubation at 27 °C, cells were loaded with 5 µM calcium-indicator dye Fluo-8 AM (AAT Bioquest, Sunnyvale, CA, USA) diluted in high Cl^− buffer. After incubation for 30 min at 27 °C, the cells were washed with buffers containing appropriate concentrations of Cl^−. The cellular assay was initiated after 3–5 min of resting and was completed within 5 min. The measurements were made using FlexStation 3 (Molecular Devices, Sunnyvale, CA, USA) at 27 °C. Fluorescence changes (i.e., excitation at 485 nm and emission at 525 nm with a cutoff at 515 nm) were monitored at 2 s intervals. A 100-µL aliquot of assay buffer supplemented with 2 × ligands was added at 20 s, and scanning was continued for an additional 40 s. The response of each well was determined as ∆RFU (delta relative fluorescent units), which was calculated as (maximum fluorescent value)—(minimum fluorescent value). […] Such normalized data from more than three independent experiments are reported as the mean ± standard error of the mean (SEM). Dose‒response fitting curves were calculated by Prism 9 (GraphPad Software, San Diego, CA) using nonlinear regression (log(agonist) vs. response—variable slope), based on the integrated data from the several independent experiments.

SMILES | EC50 in 10 mM Cl- buffer relative to high Cl- buffer (10 mM vs 141.4 mM Cl- buffer) | [Cl-]o at which sensitivity is clearly reduced (agonist L-Gln, buffers with 10-141.4 mM Cl-) | [Cl-]o required for saturation of the sensitivity (sensitivity to L-Gln, Fig. 2A,D)
C[C@H](N)C(=O)O [L-Ala, L-alanine] | ~7 times higher |  | 
[Cl-].[Na+] [NaCl] |  | below 80 mM | 40 to 80 mM
